Experimental data from patent US9629816B2, “Small molecule therapeutic compounds targeting thioesterase deficiency disorders and methods of using the same” (The United States of America, as represented by the …, priority 2011, dated 2017).

Legend:
[1] = system: INCL lymphoblasts; experiment: TEM analysis of GRODs in cultured INCL lymphoblasts; assay type: cell-based, human
Protocol: Transmission electron microsocopy (TEM) of INCL lymphoblasts and fibroblasts was performed. Briefly, cells were first treated with 250 μM NtBuHA for 3 weeks. Medium was replaced with fresh 250 μM of NtBuHA at every 72 hours. After treatment, cells were fixed with 2.5% glutaraldehyde in sodium phosphate buffer, washed three times with Millonig's phosphate buffer and stained with 2.5% uranyl acetate. Ultra-thin sections were then prepared using AO Reichert Ultracut ultramicrotome, stained with lead citrate and examined by using Zeiss EM10 CA.
Accordingly, untreated- and NtBuHA-treated cultured INCL lymphoblasts were analyzed using TEM.
For a therapeutic agent to be effective for INCL it must not only mediate depletion of ceroid by cleaving thioester linkage in S-acylated proteins but it must also prevent re-accumulation of ceroid. […] Some of these cultures were washed with PBS and then cultured for an additional 3 weeks in medium without NtBuHA before being analyzed by TEM.

[2] = system: PPT1-KO mice; experiment: TEM analysis of GRODs in brain cells of PPT1-KO mice; assay type: in vivo, mouse; conditions: PPT1-KO mice treated from 3 to 6 months of age, 1 mM in drinking water (FIG. 12)
Protocol: (§1) All animal experiments were performed according to the institutional guidelines after an animal protocol was approved by the Animal Care and Use Committee of the National Institute of Child Health and Development, National Institutes of Health. PPT1-KO mice (a gift from Dr. S. L. Hofmann, University of Texas Southwestern Medical Center at Dallas, Dallas, Tex., USA) were generated by targeted disruption of the last exon in the PPT1 gene in embryonic stem (ES) cells. These mice were subsequently backcrossed for 10 generations with wild type C57BL/6 mice in order to obtain congenic C57 background and a breeding pair was provided by Dr. Mark Sands to start the inventors' colony. Animals were housed and maintained in a pathogen-free facility. Three-month old PPT-KO mice were given NtBuHA in their drinking water (1 mM NtBuHA and 1 mM NaCl).
Cortical tissue sections were prepared from wild-type mice and untreated- as well as NtBuHA-treated PPT1-KO littermates. Cortical tissues (approximately 1 mm^3) were dissected from those animals, fixed in 2.5% glutaradlehyde in 0.1M sodium cacodylate buffer, pH 7.4 followed by three washing in 0.1 M sodium cacodylate buffer at room temperature. […]

[3] = system: PPT1-KO mice; experiment: Rotarod Performance Test, motor coordination of PPT1-KO mice; assay type: in vivo, mouse; conditions: 6-month and 8-month old PPT1-KO mice (FIG. 19A-D)
Protocol: Motor coordination of the untreated- and NtBuHA-treated PPT1-KO mice was assessed using Rotarod) (UGO Basile, Italy) at three different speeds (4, 8 and 12 rpm). In all these speeds the direction of rotation was reversed every 15 seconds. Animals were trained twice at all speed settings for 1 minute each for 3 days. Animals were then given a rest for 1 minute between two trials. Rotarod experiments were performed for at least 60 seconds on day 4 and the amount of time a mouse was on the rotarod before falling from the rotating rod was recorded.
Since NtBuHA functionally mimics PPT1, the inventors tested 6-month and 8-month old wild-type, untreated- and NtBuHA-treated PPT1-KO mice for motor coordination and exploratory behavior. The Rotarod Performance Test, which measures parameters such as riding time (seconds) and/or endurance was used to measure motor coordination. The open field test was utilized to evaluate the exploratory behavior.

[4] = system: PPT1-KO mice; experiment: Survival of PPT1-KO mice; assay type: in vivo, mouse; conditions: 5.5 months after initiation; treatment from 3 months of age; 52 out of 59 mice; untreated 10%
Protocol: as §1
For this study, 3-month old PPT1-KO mice were divided into two groups. In the first group, 55 mice received no treatment (control). In the second group, 59 mice were treated with NtBuHA. The status of all mice was monitored on a daily basis.

[5] = system: PPT1-KO mice; experiment: Toxicity of dietary NtBuHA in Ppt1-KO mice; assay type: in vivo, mouse
From the text: Thus, toxicity of HA precludes its clinical use. However, HA-derivatives may be non-toxic. […] (See Table 1 for a listing of these HA-derivatives). […] (See Table 3).

CC(C)(C)NO [NtBuHA, N-(tert-Butyl)hydroxylamine]
GRODs in INCL lymphoblasts ([1]; 250 μM for 3 weeks vs untreated controls (FIG. 9A-C)): either no GRODs, FIG. 9B, or a substantially reduced number of GRODs that were considerably smaller in size | GRODs after withdrawal of treatment ([1]; 3 weeks treatment, then additional 3 weeks in medium without NtBuHA (FIG. 9D, 11)): withdrawal from the culture medium caused reaccumulation | GRODs in brain cells [2]: markedly reduced number of GRODs | motor function (Rotarod) [3]: retained near normal motor function | mice still alive [4]: 88% | toxicity in Ppt1-KO mice [5]: showed no toxicity
